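Interpolation was linear, between the two tested concentrations surrounding the appropriate level; five concentrations were tested over 48 hours in 96-well plates. At the GI50, growth is halved.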 The source made the active and inactive calls. Rule as the data show it: active = GI50 up to about 1.1 µM and inactive = higher.
Experiments:
Assay in all cases: NCI-60 cell line screen, 48 h
LOX IMVI = tested on: LOX IMVI
Malme-3M = tested on: Malme-3M
HOP-62 = tested on: HOP-62
UO-31 = tested on: UO-31
SK-MEL-5 = tested on: SK-MEL-5
IGROV-1 = tested on: IGROV-1
MOLT-4 = tested on: MOLT-4
SN12C = tested on: SN12C
OVCAR-8 = tested on: OVCAR-8
ACHN = tested on: ACHN
UACC-257 = tested on: UACC-257
HT-29 = tested on: HT-29
Hs-578T = tested on: Hs-578T
A498 = tested on: A498
RXF 393 = tested on: RXF 393
PC-3 = tested on: PC-3
CCRF-CEM = tested on: CCRF-CEM
SNB-19 = tested on: SNB-19
SK-MEL-2 = tested on: SK-MEL-2
NCI-H522 = tested on: NCI-H522

Compound | GI50 (LOX IMVI) | GI50 (Malme-3M) | GI50 (HOP-62) | GI50 (UO-31) | GI50 (SK-MEL-5) | GI50 (IGROV-1) | GI50 (MOLT-4) | GI50 (SN12C) | GI50 (OVCAR-8) | GI50 (ACHN) | GI50 (UACC-257) | GI50 (HT-29) | GI50 (Hs-578T) | GI50 (A498) | GI50 (RXF 393) | GI50 (PC-3) | GI50 (CCRF-CEM) | GI50 (SNB-19) | GI50 (SK-MEL-2) | GI50 (NCI-H522)
O=C(O)C1CC(O)CN1 (centres undefined) | > 100 µM (inactive) | > 100 µM (inactive) | > 100 µM (inactive) | > 100 µM (inactive) | > 100 µM (inactive) | > 100 µM (inactive) | > 100 µM (inactive) | > 100 µM (inactive) | > 100 µM (inactive) | > 100 µM (inactive) | > 100 µM (inactive) | > 100 µM (inactive) | > 100 µM (inactive) | > 100 µM (inactive) | > 100 µM (inactive) | > 100 µM (inactive) | > 100 µM (inactive) | > 100 µM (inactive) | > 100 µM (inactive) | 
CC(=O)OC12c3ccccc3C(c3ccccc31)C1C(=O)N(c3ccccc3O)C(=O)C12 (centres undefined) | > 100 µM (inactive) | 90.4 µM (inactive) | 96.4 µM (inactive) | 50.4 µM (inactive) | > 100 µM (inactive) | > 100 µM (inactive) | > 100 µM (inactive) | > 100 µM (inactive) | > 100 µM (inactive) | > 100 µM (inactive) | > 100 µM (inactive) | 70.5 µM (inactive) | > 100 µM (inactive) | 90.2 µM (inactive) | > 100 µM (inactive) | > 100 µM (inactive) | 57.3 µM (inactive) | 84.9 µM (inactive) |  | 
Cc1c(C(=O)OCc2ccccc2)[n+]([O-])c2cc(Cl)c(Cl)cc2[n+]1[O-] | 17.2 µM (inactive) |  | 14.2 µM (inactive) | 16.4 µM (inactive) | 15 µM (inactive) | 5.83 µM (inactive) | 3.28 µM (inactive) | 18.1 µM (inactive) | 18.2 µM (inactive) | 21.4 µM (inactive) | 15.1 µM (inactive) | 17.1 µM (inactive) | 19.2 µM (inactive) | 20.5 µM (inactive) | 19.1 µM (inactive) | 15.7 µM (inactive) | 14.8 µM (inactive) | 27 µM (inactive) | 17.4 µM (inactive) | 
CC(=O)O[C@H]1C(=O)[C@@]2(C)[C@H]([C@H](OC(=O)c3ccccc3)[C@]3(O)C[C@H](OC(=O)[C@H](OC(=O)OCCC(O)CO)[C@@H](NC(=O)c4ccccc4)c4ccccc4)C(C)=C1C3(C)C)[C@]1(OC(C)=O)CO[C@@H]1C[C@@H]2O (some centres undefined) | < 0.01 µM (active) |  | < 0.01 µM (active) | 0.989 µM (active) | < 0.01 µM (active) | < 0.01 µM (active) | < 0.0109 µM (active) | < 0.01 µM (active) | < 0.0221 µM (active) | 1.09 µM (active) | < 0.01 µM (active) | < 0.01 µM (active) | < 0.01 µM (active) | 0.141 µM (active) | < 0.037 µM (active) | < 0.0128 µM (active) | < 0.01 µM (active) | < 0.01 µM (active) | 29 µM (inactive) | < 0.01 µM (active)
COc1ccc(C2C3=C(COC3=O)Oc3cc4c(cc32)OCO4)c(OC)c1 (centres undefined) | 4.31 µM (inactive) | 14.9 µM (inactive) | 30.3 µM (inactive) | 16.3 µM (inactive) | 10.7 µM (inactive) | 12.9 µM (inactive) | 4.28 µM (inactive) | 6.75 µM (inactive) | 44.4 µM (inactive) | 19.9 µM (inactive) | 47.9 µM (inactive) | 6.65 µM (inactive) | 13.6 µM (inactive) | 16.1 µM (inactive) | 16.1 µM (inactive) | 6.75 µM (inactive) | 11.1 µM (inactive) | 37.8 µM (inactive) |  | 
CCCc1cc(=O)oc2c3c(c4c(c12)OC(C)(C)C=C4)O[C@@H](C)[C@H](C)C3=O | 18.7 µM (inactive) | 19.5 µM (inactive) | 18.5 µM (inactive) | 15.8 µM (inactive) | 15.8 µM (inactive) | 12.9 µM (inactive) | 6.61 µM (inactive) | 18.7 µM (inactive) | 17.1 µM (inactive) | 12.4 µM (inactive) | 19.7 µM (inactive) | 8.71 µM (inactive) | 15.3 µM (inactive) | 14.7 µM (inactive) | > 10 µM (inactive) | 15.5 µM (inactive) | 15.1 µM (inactive) | 17.8 µM (inactive) |  | 13.6 µM (inactive)
NC(=O)c1ccc(NS(=O)(=O)c2ccc(N)cc2)nc1 | > 100 µM (inactive) | > 100 µM (inactive) | > 100 µM (inactive) | > 100 µM (inactive) | > 100 µM (inactive) | > 100 µM (inactive) | > 100 µM (inactive) | > 100 µM (inactive) | > 100 µM (inactive) | > 100 µM (inactive) | > 100 µM (inactive) | > 100 µM (inactive) | > 100 µM (inactive) | > 100 µM (inactive) |  | > 100 µM (inactive) | > 100 µM (inactive) | > 100 µM (inactive) | > 100 µM (inactive) | 

Reference: ChEMBL document CHEMBL1201862, “PubChem BioAssay data set” (2004)
